Measurements as given in US8569296B2, “PI3K (delta) selective inhibitors” (Xcovery Holding Company, LLC, priority 2009, dated 2013).
pIC50: −log10 of the molar value. Where two headings read alike, the source gives them in different places.

Key:
Test in all cases: Kinase binding assay (kinase-tagged T7 phage / qPCR, Ambit Biosciences)
PI3Kδ = molecular target: T1, PI3Kδ (Homo sapiens, UniProt O00329)
T1 construct: purchased Ambit Biosciences; host or cells: E. coli BL21-derived host (T7 phage) or HEK-293
T1 sequence (O00329 1-1044): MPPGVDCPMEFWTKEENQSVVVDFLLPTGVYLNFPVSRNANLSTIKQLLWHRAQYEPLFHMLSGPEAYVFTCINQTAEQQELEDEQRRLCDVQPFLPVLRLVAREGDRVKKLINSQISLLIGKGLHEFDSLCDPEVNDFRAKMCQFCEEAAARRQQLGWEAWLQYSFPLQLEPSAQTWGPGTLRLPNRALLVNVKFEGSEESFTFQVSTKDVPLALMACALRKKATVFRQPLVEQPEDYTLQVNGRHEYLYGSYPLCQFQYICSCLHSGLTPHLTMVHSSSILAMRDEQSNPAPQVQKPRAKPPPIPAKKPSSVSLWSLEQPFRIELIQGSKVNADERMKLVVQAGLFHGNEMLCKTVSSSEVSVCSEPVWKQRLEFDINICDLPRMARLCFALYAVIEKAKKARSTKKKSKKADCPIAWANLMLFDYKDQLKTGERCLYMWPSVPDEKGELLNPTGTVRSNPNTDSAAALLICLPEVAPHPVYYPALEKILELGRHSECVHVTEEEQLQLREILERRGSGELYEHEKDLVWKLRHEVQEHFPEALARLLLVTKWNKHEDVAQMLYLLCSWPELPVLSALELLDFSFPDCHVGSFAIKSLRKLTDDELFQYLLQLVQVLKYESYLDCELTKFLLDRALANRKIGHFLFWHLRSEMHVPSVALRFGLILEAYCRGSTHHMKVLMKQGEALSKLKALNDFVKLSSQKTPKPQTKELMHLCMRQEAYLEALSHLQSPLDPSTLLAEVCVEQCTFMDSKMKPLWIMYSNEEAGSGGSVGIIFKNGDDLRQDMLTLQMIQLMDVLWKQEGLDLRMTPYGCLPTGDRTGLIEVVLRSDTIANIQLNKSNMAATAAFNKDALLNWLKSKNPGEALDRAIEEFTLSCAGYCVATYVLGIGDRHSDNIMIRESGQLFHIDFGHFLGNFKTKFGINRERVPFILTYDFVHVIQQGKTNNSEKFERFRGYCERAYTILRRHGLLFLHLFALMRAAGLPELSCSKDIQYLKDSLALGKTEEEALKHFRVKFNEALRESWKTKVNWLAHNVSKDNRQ
Method: (§1) Assays were performed as described in Fabian et al. (2005) Nature Biotechnology, vol. 23, p. 329 and in Karaman et al. (2008) Nature Biotechnology, vol. 26, p. 127.
(§2) Kinase assays. For most assays, kinase-tagged T7 phage strains were grown in parallel in 24-well blocks in an E. coli host derived from the BL21 strain. E. coli were grown to log-phase and infected with T7 phage from a frozen stock (multiplicity of infection ˜0.1) and incubated with shaking at 32° C. until lysis (˜90 minutes). The lysates were centrifuged (6,000×g) and filtered ([…]) to remove cell debris. The remaining kinases were produced in HEK-293 cells and subsequently tagged with DNA for qPCR detection. Streptavidin-coated magnetic beads were treated with biotinylated small molecule ligands for 30 minutes at room temperature to generate affinity resins for kinase assays. The liganded beads were blocked with excess biotin and washed with blocking buffer (SeaBlock (Pierce), 1% BSA, 0.05% Tween 20, 1 mM DTT) to remove unbound ligand and to reduce non-specific phage binding. Binding reactions were assembled by combining kinases, liganded affinity beads, and test compounds in 1× binding buffer (20% SeaBlock, 0.17×PBS, 0.05% Tween 20, 6 mM DTT). Test compounds were prepared as 40× stocks in 100% DMSO and directly diluted into the assay. All reactions were performed in polypropylene 384-well plates in a final volume of 0.04 ml. The assay plates were incubated at room temperature with shaking for 1 hour and the affinity beads were washed with wash buffer (1×PBS, 0.05% Tween 20). The beads were then re-suspended in elution buffer (1×PBS, 0.05% Tween 20, 0.5 mM non-biotinylated affinity ligand) and incubated at room temperature with shaking for 30 minutes. The kinase concentration in the eluates was measured by qPCR.
(§3) Compounds were tested using the above assay at Ambit Biosciences (San Diego, Calif., USA).

PI3Kα = molecular target: T2, PI3Kα (Homo sapiens, UniProt P42336); details: read-out: inhibitory activity (IC50) against PI3Kα
T2 construct: purchased Ambit Biosciences; host or cells: E. coli BL21-derived host (T7 phage) or HEK-293
Method: as §1, §2, §3

PI3Kγ = molecular target: T3, PI3Kγ (Homo sapiens, UniProt P48736); details: read-out: inhibitory activity (IC50) against PI3Kγ
T3 construct: purchased Ambit Biosciences; host or cells: E. coli BL21-derived host (T7 phage) or HEK-293
Method: as §1, §2, §3

PI3Kβ = molecular target: T4, PI3Kβ (Homo sapiens, UniProt P42338); details: read-out: inhibitory activity (IC50) against PI3Kβ
T4 construct: purchased Ambit Biosciences; host or cells: E. coli BL21-derived host (T7 phage) or HEK-293
Method: as §1, §2, §3

mTOR = molecular target: T5, mTOR (Homo sapiens, UniProt P42345); details: read-out: inhibitory activity (IC50) against mTOR
T5 construct: purchased Ambit Biosciences; host or cells: E. coli BL21-derived host (T7 phage) or HEK-293
Method: as §1, §2, §3

T2 sequence (P42336 whole entry): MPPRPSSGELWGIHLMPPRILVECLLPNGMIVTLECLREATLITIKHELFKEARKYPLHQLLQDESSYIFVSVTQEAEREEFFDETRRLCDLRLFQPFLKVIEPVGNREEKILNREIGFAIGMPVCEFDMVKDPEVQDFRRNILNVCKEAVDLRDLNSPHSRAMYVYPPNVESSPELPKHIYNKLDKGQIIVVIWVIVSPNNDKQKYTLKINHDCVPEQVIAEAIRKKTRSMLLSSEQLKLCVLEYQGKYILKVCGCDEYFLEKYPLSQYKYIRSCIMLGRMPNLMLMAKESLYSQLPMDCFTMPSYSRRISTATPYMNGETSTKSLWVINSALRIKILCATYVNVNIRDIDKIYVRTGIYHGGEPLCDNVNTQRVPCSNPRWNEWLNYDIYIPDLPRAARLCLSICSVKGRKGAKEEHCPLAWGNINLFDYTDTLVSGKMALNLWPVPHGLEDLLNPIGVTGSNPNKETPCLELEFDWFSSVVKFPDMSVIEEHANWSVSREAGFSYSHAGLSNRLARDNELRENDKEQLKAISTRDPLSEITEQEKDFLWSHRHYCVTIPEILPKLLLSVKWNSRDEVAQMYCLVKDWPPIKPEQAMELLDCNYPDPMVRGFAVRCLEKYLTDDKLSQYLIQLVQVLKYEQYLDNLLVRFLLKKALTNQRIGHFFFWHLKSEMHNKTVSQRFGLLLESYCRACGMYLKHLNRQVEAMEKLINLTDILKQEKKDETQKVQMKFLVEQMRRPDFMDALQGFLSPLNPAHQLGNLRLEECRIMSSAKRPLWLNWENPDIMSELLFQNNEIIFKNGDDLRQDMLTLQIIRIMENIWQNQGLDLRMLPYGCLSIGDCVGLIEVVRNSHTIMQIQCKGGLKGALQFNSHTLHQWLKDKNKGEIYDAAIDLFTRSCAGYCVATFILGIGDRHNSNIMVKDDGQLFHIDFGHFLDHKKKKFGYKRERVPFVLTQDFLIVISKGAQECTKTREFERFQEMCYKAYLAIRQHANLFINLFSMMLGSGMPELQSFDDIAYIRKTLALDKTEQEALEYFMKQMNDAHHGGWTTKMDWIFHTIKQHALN
T3 sequence (P48736 whole entry): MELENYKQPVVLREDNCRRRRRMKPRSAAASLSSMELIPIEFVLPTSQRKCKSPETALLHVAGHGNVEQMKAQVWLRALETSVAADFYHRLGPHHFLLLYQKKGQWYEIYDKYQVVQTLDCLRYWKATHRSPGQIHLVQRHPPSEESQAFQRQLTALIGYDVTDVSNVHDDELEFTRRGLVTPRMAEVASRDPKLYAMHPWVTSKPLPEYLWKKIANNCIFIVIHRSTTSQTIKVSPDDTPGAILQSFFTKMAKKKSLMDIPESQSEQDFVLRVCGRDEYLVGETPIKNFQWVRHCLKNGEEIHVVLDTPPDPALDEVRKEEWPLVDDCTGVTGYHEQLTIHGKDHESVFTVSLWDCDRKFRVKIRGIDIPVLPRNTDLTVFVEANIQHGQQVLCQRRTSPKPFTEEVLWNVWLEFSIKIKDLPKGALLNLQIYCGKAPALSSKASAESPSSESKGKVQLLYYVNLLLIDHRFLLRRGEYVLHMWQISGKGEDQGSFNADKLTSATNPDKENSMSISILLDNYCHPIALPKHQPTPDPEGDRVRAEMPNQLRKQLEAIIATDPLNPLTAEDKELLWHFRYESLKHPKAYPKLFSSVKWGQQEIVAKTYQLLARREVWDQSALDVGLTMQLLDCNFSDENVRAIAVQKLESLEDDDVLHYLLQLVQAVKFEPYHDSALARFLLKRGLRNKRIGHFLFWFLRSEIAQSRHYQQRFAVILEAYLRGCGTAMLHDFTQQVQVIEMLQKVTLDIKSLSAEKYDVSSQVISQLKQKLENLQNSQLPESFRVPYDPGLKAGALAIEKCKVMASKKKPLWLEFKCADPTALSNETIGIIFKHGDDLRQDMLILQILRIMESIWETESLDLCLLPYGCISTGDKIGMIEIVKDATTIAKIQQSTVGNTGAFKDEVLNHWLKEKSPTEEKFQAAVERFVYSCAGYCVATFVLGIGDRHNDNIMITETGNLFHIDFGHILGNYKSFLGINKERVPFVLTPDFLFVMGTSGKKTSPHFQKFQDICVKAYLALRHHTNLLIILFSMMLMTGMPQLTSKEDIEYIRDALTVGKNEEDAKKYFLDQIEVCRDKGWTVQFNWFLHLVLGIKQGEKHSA
T4 sequence (P42338 whole entry): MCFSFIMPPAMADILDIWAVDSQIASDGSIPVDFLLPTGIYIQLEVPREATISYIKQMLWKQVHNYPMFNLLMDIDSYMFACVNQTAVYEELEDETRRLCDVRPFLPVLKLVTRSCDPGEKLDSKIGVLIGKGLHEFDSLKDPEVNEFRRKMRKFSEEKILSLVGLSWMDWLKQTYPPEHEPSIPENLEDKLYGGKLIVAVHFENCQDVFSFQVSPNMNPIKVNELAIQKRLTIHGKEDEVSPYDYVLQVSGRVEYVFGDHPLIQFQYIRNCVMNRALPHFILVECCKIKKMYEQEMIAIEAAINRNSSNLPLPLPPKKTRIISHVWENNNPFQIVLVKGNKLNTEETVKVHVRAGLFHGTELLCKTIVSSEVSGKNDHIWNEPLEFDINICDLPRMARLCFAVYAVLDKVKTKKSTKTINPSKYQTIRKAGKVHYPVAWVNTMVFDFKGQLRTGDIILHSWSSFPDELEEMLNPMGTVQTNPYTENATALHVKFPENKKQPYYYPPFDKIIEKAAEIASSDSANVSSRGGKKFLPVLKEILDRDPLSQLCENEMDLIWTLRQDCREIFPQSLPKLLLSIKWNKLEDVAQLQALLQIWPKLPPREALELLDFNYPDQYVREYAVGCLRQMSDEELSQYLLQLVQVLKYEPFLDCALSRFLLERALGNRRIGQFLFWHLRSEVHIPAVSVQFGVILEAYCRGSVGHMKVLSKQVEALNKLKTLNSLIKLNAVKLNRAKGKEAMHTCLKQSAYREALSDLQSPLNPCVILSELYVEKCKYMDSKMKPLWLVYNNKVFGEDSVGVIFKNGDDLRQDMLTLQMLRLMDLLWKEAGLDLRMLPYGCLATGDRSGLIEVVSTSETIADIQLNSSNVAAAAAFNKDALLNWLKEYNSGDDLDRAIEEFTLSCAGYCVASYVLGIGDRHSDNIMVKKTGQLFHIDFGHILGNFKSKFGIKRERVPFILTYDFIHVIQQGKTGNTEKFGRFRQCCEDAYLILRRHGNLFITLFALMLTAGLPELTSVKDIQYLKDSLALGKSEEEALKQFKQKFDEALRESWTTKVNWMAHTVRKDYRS

inhibition against PI3Kδ (PI3Kδ; at up to 100 nM) | pIC50 (PI3Kα) | pIC50 (PI3Kγ) | pIC50 (PI3Kδ; read-out: IC50, inhibition against PI3Kδ) | pIC50 (PI3Kβ) | pIC50 (PI3Kδ) | pIC50 (mTOR) | SMILES
did not show significant inhibition |  |  |  |  |  |  | Cc1nc2ccccc2n1-c1nc(N2CCOCC2)nc2c1ncn2CCO [Example 2d, reference compound]
 | > 7.00 | > 7.00 | > 7.00 |  |  |  | COc1cccc2c1nc(C(F)F)n2-c1nc(N2CCOCC2)nc2c1ncn2C1CCOCC1 [Example 21, 1-(9-(2H-3,4,5,6-tetrahydropyran-4-yl)-2-morpholin-4-ylpurin-6-yl)-2-(difluoromethyl)-4-methoxybenzimidazole]
 | < 7.00 | < 7.00 |  | < 7.00 | > 7.00 | < 7.00 | OCCn1cnc2c(-n3c(C(F)F)nc4ccccc43)nc(N3CCOCC3)nc21 [Example 2, 2-{6-[2-(difluoromethyl)benzimidazol-1-yl]-2-morpholin-4-ylpurin-9-yl}ethan-1-ol]
